Measurements from patent publication US20230256050A1, “COMPOSITIONS, METHODS AND USES COMPRISING TENEURIN C-TERMINAL ASSOCIATED PEPTIDE -1 (TCAP-1) FOR ENHANCING MUSCLE PERFORMANCE” (priority 2016, published 2023).
Where no end group is shown, it is not given here.

Tests used:
[1] = system: C2C12 myotubes; assay: Calcium imaging in live C2C12 cells (fluo-4); type: cell-based, mouse; conditions: caffeine 4 mM, TCAP-1 100 nM pre-treatment for 1 hour; for peak in cytosolic calcium on caffeine application (fluo-4 fluorescence): compared with caffeine alone; for decline of cytosolic calcium after the caffeine peak: over 5 minutes
Protocol: For live-cell fluorescence experiments, immortalized murine C2C12 skeletal muscle cells were grown and fully differentiated on Poly-D-lysine coated 25 mm round No. 1 glass coverslips (Warner Instruments, Hamden, CT, USA). Cells were grown in Dulbecco’s Modified Eagle Medium (DMEM) supplemented with 20% fetal bovine serum (FBS), 100 U/ml penicillin and 100 µg/ml streptomycin (Invitrogen, Burlington, ON, Canada), and stimulated differentiation with DMEM supplemented with 10% horse serum (HS), 100 U/ml penicillin and 100 µg/ml streptomycin (Invitrogen, Burlington, ON, Canada. Changes in intracellular calcium were assessed using the membrane-permeable calcium sensitive fluorescent indicator fluo-4, AM (Invitrogen, Burlington, ON, Canada). Cells were loaded with fluo-4 by incubating a single coverslip in DMEM containing 10 µM fluo-4 (from a 1 mM stock solution in DMSO) for 30 min (37° C.) followed by a 15 min wash in Locke’s Buffer containing (in mM): 154 mM NaCl, 4 mM NaHCOs, 5 mM KCI, 2.3 mM CaCl2, 1 mM MgCl2, 5 mM glucose and 10 mM Hepes (pH 7.4); osmolarity 305-310 mOsmol at 22° C. During loading, the acetate groups on fluo-4 are removed by intracellular esterases reducing dye leakage. In experiments assessing changes in intracellular calcium, coverslips were placed in a flow-through bath chamber (RC-40HP, Warner Instruments, Hamden, CT, USA) of an inverted microscope (Axio Observer Z1, Zeiss, Toronto, ON, Canada) equipped with a 40× oil immersion objective. Cells were continuously bulk perfused with Locke’s buffer via a gravity drip perfusion system at a rate of 2-3 ml min-1 and experiments were conducted at a room temperature (RT) of 22° C. Changes in fluo-4 fluorescence was imaged using a green fluorescent protein (GFP) filter set (Semrock, Rochester, NY, USA) and a X-Cite 120 fluorescence illumination system (Excelitas Technologies, Mississauga, ON, Canada), controlled by Volocity 4.0 imaging software (Quorum Technologies Inc., Guelph, ON, Canada). Fluorescence emissions were detected with an Orca-ER Hamamatsu B/W CCD digital camera (Hamamatsu, Middlesex, NJ, USA). Fluo-4 was excited with a wavelength of 480 nm for 100 ms every 5 sec and fluorescence emission was measured at wavelength of 516 nm. Caffeine (4 mM; Sigma Aldrich, Oakville, ON) was applied to C2C12 myotubes to stimulate calcium release from the sarcoplasmic reticulum. Cells were either pre-treated with TCAP-1 (100 nM) for 1 hour before stimulation with caffeine. Using velocity 4.0 imaging software, multiple regions of interests (ROIs) were taken from each coverslip to be analysed.

[2] = system: C2C12 myotubes; assay: Mitochondrial membrane potential in C2C12 cells with Rhodamine-123; type: cell-based, mouse; conditions: caffeine 4 mM; TCAP-1 100 nM pre-treatment for 1 hour, compared with caffeine alone
Protocol: C2C12 myotubes were cultured as previously described above. Changes in mitochondrial membrane potential were assessed using fluorescent indicator Rhodamine123 (R123). Cells were loaded with R123 by incubating a single coverslip in DMEM containing 5 µM R123 (from a 1 mM stock solution in DMSO) for 30 min (37° C.) followed by a 15 min wash in Locke’s Buffer containing (in mM): 154 mM NaCl, 4 mM NaHCOs, 5 mM KCI, 2.3 mM CaCl2, 1 mM MgCl2, 5 mM glucose and 10 mM Hepes (pH 7.4); osmolarity 305-310 mOsmol at 22° C. […] Changes in R123 fluorescence was imaged using a green fluorescent protein (GFP) filter set (Semrock, Rochester, NY, USA) and a X-Cite 120 fluorescence illumination system (Excelitas Technologies, Mississauga, ON, Canada), controlled by Volocity 4.0 imaging software (Quorum Technologies Inc., Guelph, ON, Canada). Fluorescence emissions were detected with an Orca-ER Hamamatsu B/W CCD digital camera (Hamamatsu, Middlesex, NJ, USA). R123 was excited with a wavelength of 480 nm for 100 ms every 5 sec and fluorescence emission was measured at wavelength of 516 nm. […] Using velocity 4.0 imaging software, multiple regions of interests (ROIs) were taken from each coverslip to be analysed.

[3] = system: inositol triphosphate (IP3) levels, downstream signaling of ADGRL1, C2C12 skeletal cell line; assay: Mouse inositol triphosphate (IP3) ELISA in C2C12 cell lysates; type: cell-based; conditions: TCAP-1 100 nM, after 15 minutes, p<0.0001
Protocol: (§1) Immortalized murine skeletal cell line C2C12 cells were used for all in vitro studies. Cells were maintained at 60-70% confluency with Dulbecco’s Modified Eagle Medium (DMEM) supplemented with 20% fetal bovine serum (FBS) and penicillin/streptomycin antibiotic combination. To induce differentiation, the media was changed to DMEM supplemented with 10% horse serum and penicillin/streptomycin antibiotic combination, and cells were allowed to differentiate for 6 days (media replaced every 24 h). For treatment, cells were serum starved for 3 h and then treated with either vehicle (ddH20) or TCAP-1 (100 nM).
(§2) The protocols provided by commercial DAG and IP3 assays (MyBiosource, San Diego, California USA). Briefly, immortalized mouse C2C12 cells were prepared using the TCAP-treatment protocol described previously. Cells were added to a microELISA plate coated with purified mouse DAG or IP3 antibodies, respectively. Subsequently, 3,3′,5,5′-tetramethylbenzidine (TMB) solution was added to detect the HRP-conjugates as the colour changes. Finally, a sulphuric acid solution was added to terminate the reaction. The absorbance change was measured at a wavelength of 450 nm using a spectrophotometer (SpectraMax Plus).

[4] = system: hind limb muscle; assay: Functional positron emission tomography (fPET) of 18F-deoxyglucose uptake; type: in vivo, Wistar rats; conditions: single subcutaneous 10 nmoles/kg, 3 days later, p<0.1, n=5
Protocol: Male adult Sprague-Dawley rats (-350 g) were used for the muscle function studies. Male adult Wistar rats (-250 g) were used for the functional positron emission tomography tests. Functional Positron emission tomography (fPET) was performed using a Siemens Inveon microPET small animal PET scanner, and [18F]-2-deoxyglucose (FDG) radiotracer (IBA Molecular) and protocol was followed as previously described (Hogg et al., manuscript in review). PET scans were acquired on all of the animals 3 days post-dosing. The animals were injected intravenously with approximately 1mCi of FDG. The FDG uptake occurred under anesthesia for 90 min. Body temperature was maintained with a thermostat-regulated recirculating water heated pad. Static emission data was acquired for 20 minutes. […] The total PET counts were calculated from all voxels within the segmented volumes of interest. (Percent injected dose (%ID)) was calculated by normalizing the total counts in each tissue of interest at each time point, to the whole body total counts calculated over 1 min from the whole body max uptake time point, for each animal, during the first 90 min post FDG administration.) These images were then compiled into 3D projections, thus allowing for accurate analyses of muscle tissue. Fluorescence of the mean pixel was calibrated to volume of muscle being analyzed (mean pixel fluorescence/mm3).

[5] = system: tibialis anterior muscle; assay: Electrical muscle stimulation, 6-minute fatigue protocol; type: in vivo, Sprague-Dawley rats
Protocol: Male adult Sprague-Dawley rats (-350 g) were used for the muscle function studies. Male adult Wistar rats (-250 g) were used for the functional positron emission tomography tests. Electrical muscle stimulation protocol was followed as described by Holwerda and Locke (2014) with minor modifications. Briefly, sixteen male adult Sprague-Dawley rats ([…]) were allowed to acclimate for 1 week on a 12:12 LD cycle. For 5 days daily, half of the rats (n=8) were treated with physiological saline control, and the other half (n=8) was treated with mouse-TCAP-1 (10 nmoles/kg) by subcutaneous injection in the interscapular region. Three days from the last treatment, animals were anesthetized with 5% isofluorane in 1 L/min O2, and subsequently positioned into testing apparatus. A 25 g needle was inserted through the soft tissue of the knee in order to ensure a stable position. The foot was placed on the lever attached to a servomotor and taped in position. Electrodes were placed below the skin but adjacent to the tibialis anterior (TA) muscle. The correct voltages for peak tetanic tension was established by increasing voltage by 1 volt increments. The test began with a single tetanus and single twitch protocol to establish baseline. The 6-min fatigue protocol (8 V, 200 Hz, 300 ms) was started. Immediately following the termination of the protocol, tetanic and twitch tensions were recorded at 0, 1, and 5 mins. Animals were immediately sacrificed after recovery measurements were recorded.

[6] = system: C2C12 murine skeletal muscle cells; assay: Radioactive glucose (3H-2-deoxyglucose) uptake in vitro; type: cell-based, mouse; conditions: 100 nM, at 30 and 45 minutes (p<0.0001, p<0.001)
Protocol: as §1
Immortalized murine skeletal C2C12 cells were allowed to proliferate and differentiate and glucose uptake protocol was followed as previously described with minor modifications (Maher et al., 1991; Uemura & Greenlee, 2006). At day 6 post-plating, cells were washed 2x with Locke’s buffer (154 mM NaCl, 5.6 mM KCI, 2.3 mM CaCl2, 3.6 mM NaHCOs, 5 mM HEPES) without serum and glucose. The culture was incubated in the Locke’s buffer for 1 h at 37° C. followed by exposure to 100 nM insulin, 100 nM TCAP-1, 100 nM SC-TCAP-1, or saline. 3H-2-deoxyglucose (0.5 µCi/ml) was added to culture 5 min before termination of treatment exposure. […] Cell lysates were used for determination of radioactivity by a beta liquid scintillation counter (Beckman Coulter).

[7] = system: tibialis anterior muscle; assay: Oxidative capacity, NADH staining of muscle cryosections; type: in vivo, Sprague-Dawley rats; conditions: 10 nmoles/kg for 5 days
Protocol: Tibialis anterior muscles from the treated Sprague-Dawley rats were flash-frozen in liquid-nitrogen-cooled isopentane until cryosectioned at 10 µm thickness. Cryosections were then washed 2X with PBS, and then 0.2% NBT solution in PBS containing 0.1% NADH was added and allowed to incubate for 30 min at 37° C. Slides were washed 2X in PBS before mounted with cryoseal and imaged with Canon camera and Leica bright-field microscope at 100x magnification. Images were analyzed on Image J software and frequency distribution curves were constructed, where the darker the pixel represents higher NADH levels. Frequency curves were built based on average of five pictures per tissue, with a minimum of three tissues analysed for each group.

[8] = system: diacylglycerol (DAG) levels, downstream signaling of ADGRL1, C2C12 skeletal cell line; assay: Mouse diacylglycerol (DAG) ELISA in C2C12 cell lysates; type: cell-based; conditions: TCAP-1 100 nM, after 60 minutes, p<0.0001
Protocol: as §1, §2

[9] = system: neurons; conditions: via increases of glucose transporter GLUT-3 to the plasma membrane (unpublished); cited from earlier work
[10] = 10 nmoles/kg s.c. for 5 days, baseline

Row | Compound | peak in cytosolic calcium on caffeine application (fluo-4 fluorescence) [1] | decline of cytosolic calcium after the caffeine peak [1] | mitochondrial membrane potential (Rhodamine123 fluorescence) [2] | IP3 levels [3] | 18F-DG uptake in hind limb muscles (fPET fluorescence) [4] | fatigue response curve vs vehicle ([5]; 10 nmoles/kg s.c. for 5 days) | tetanic force production throughout fatigue or recovery vs vehicle ([5]; 10 nmoles/kg s.c. for 5 days) | force generated in recovery after fatigue protocol ([5]; 10 nmoles/kg s.c. for 5 days, after 6-minute fatigue protocol) | contraction relaxation rate at baseline vs vehicle [5, 10] | contraction velocity at baseline vs vehicle [5, 10] | half relaxation time (1/2RT) over fatigue protocol ([5]; 10 nmoles/kg s.c. for 5 days, compared to vehicle, p<0.05) | muscle mass vs vehicle ([5]; 10 nmoles/kg s.c. for 5 days, extracted muscles) | twitch peak force at pre-test (baseline) vs vehicle ([5]; 10 nmoles/kg s.c. for 5 days, tested 3 days after last injection, p<0.05) | rate of the contractions (max dx/dt) over fatigue protocol ([5]; 10 nmoles/kg s.c. for 5 days, vehicle group steadily declined, p<0.05) | fiber size vs vehicle ([5]; data not shown) | 3H-DG uptake into C2C12 cells vs vehicle [6] | NADH staining (oxidative capacity), unstimulated control limb, vs vehicle ([7]; contralateral control limb, p<0.05) | TCAP-1-mediated increase in oxidative capacity (NADH), stimulated limb, vs vehicle ([7]; exercised (stimulated) limb, p=0.1) | DAG levels compared to vehicle treatment [8] | glucose uptake in neurons [9]
1 | Cn1c(=O)c2c(ncn2C)n(C)c1=O [caffeine, Caffeine, reference compound] | strong peak in cytosolic calcium | gradual decrease over 5 minutes | mitochondrial membrane depolarization |  |  |  |  |  |  |  |  |  |  |  |  |  |  |  |  | 
2 | TCAP-1: 41-mer peptide from the C-terminal of teneurin-1, synthesized amidated, suspended in 0.9% saline for subcutaneous injection (QQLLGTGRVQGYDGYFVLSVEQYLELSDSANNIHFMRQSEI-NH2) | significantly lower peak | significantly faster decline | significantly higher membrane depolarization | significantly reduced | significant increase | responded comparably | responded comparably | increased | increased | significantly slower | sustained | no difference | significantly higher | maintained throughout the protocol | no difference | significantly increased | significant increased frequency of a stronger NADH-positive staining | maintained | significantly decreased | significantly increases glucose uptake
